“Also recorded” adds a separate entry of the source. Like-named read-outs stand apart in the source and are kept apart here.
Experiments:
[1] = system: DU145 tumor cells (human prostate cancer cell line); assay: DU145 tumor xenograft in nude mice (Example 7); assay type: in vivo; conditions: for effect on tumor growth (mean tumor volume): IP every other day, Compound A 200 mg/kg, oxaliplatin 5 mg/kg, alone or combined
Experimental: At this time, animals were divided into four groups (N=5) and were treated every other day by IP injections with: […] (b) oxaliplatin (5.0 mg/kg); […] All animals were examined for signs of toxicity. Tumor volumes and body weights were determined weekly. […] The tumor volume is plotted in FIG. 2 as the mean tumor volume±standard error of the mean (SEM) for all animals in each particular dose group.

[2] = system: BEL-7402 tumor cells (human hepatoma cell line); assay type: in vivo; conditions: BEL-7402 xenograft, IP every other day, Compound A 200 mg/kg, oxaliplatin 5 mg/kg, alone or combined
Experimental: Twenty female athymic nude mice (NCR-nu/nu, Taconic) were injected subcutaneously with 1×10^7 BEL-7402 tumor cells (human hepatoma cell line). The tumors produced by the tumor cell injections were allowed to grow for a period of 10-14 days until the tumors reached a size from 200 to 250 mm^3. The mice were then divided into four test groups (N=5) which were treated every other day by intraperitoneal (IP) injections of: (a) (E)-2-(5-((2,4,6-trimethoxystyrylsulfonyl)methyl)-2-methoxyphenylamino)acetic acid sodium salt (Compound A) (200 mg/kg) dissolved in PBS; (b) oxaliplatin (5 mg/kg); (c) a combination of (E)-2-(5-((2,4,6-trimethoxystyrylsulfonyl)methyl)-2-methoxyphenylamino)acetic acid sodium salt (200 mg/kg) dissolved in PBS and oxaliplatin (5 mg/kg), or (d) PBS vehicle containing no drug. […] Body weights are plotted in FIG. 1(b) as the mean of the measured weights of all the animals in each dose group. Tumor volume was determined by measuring each tumor in two dimensions using traceable digital Vernier calipers (Fisher Scientific International Inc., Liberty Lane, Hampton, N.H. 03842). The tumor volume was calculated for each tumor using the equation: V=L×(S^2)π/6, wherein L is the longer, and S is the shorter of the two measured dimensions. […]

[3] = system: MCF-7 tumor cells (human breast cancer cell line)
Experimental: Estradiol pellets (1 mg) were implanted interscapularly into twenty female athymic nude mice (NCR-nu/nu, Taconic) mouse. After 24 hours 1×10^7 MCF-7 tumor cells (breast cancer cell line) were implanted in the mammary fat pad of each mouse. The tumors produced by the tumor cell injections were allowed to grow for a period of 10-15 days until the tumors reached a size from 200 to 250 mm^3. The mice were then divided into four test groups (N=5) which were treated every other day by IP injections with: (a) (E)-2-(5-((2,4,6-trimethoxystyrylsulfonyl)methyl)-2-methoxyphenylamino)acetic acid sodium salt (200 mg/kg) dissolved in PBS; (b) doxorubicin (2.5 mg/kg) dissolved in PBS; (c) a combination of (E)-2-(5-((2,4,6-trimethoxystyrylsulfonyl)methyl)-2-methoxyphenylamino)acetic acid sodium salt (200 mg/kg) and doxorubicin (2.5 mg/kg) dissolved in PBS; or (d) PBS vehicle containing no drug. […] Body weights are plotted in FIG. 3(b) as the mean of the measured weights of all the animals in each dose group. Tumor volume was determined by measuring each tumor in two dimensions using traceable digital Vernier calipers. The tumor volume was calculated for each tumor using the equation: V=L×(S^2)π/6. The tumor volume is plotted in FIG. 3(a) as the mean tumor volume all animals in each particular dose group.

[4] = system: MCF-7 tumor cells (human breast cancer cell line); assay: Doxorubicin toxicity and lethality in MCF-7 tumor-bearing nude mice (Example 9); assay type: in vivo
Experimental: Estradiol pellets (1 mg) were implanted interscapularly into ten female athymic nude mice (NCR-nu/nu, Taconic) mouse. […] Body weights for the individual animals of group (a) are plotted in FIG. 4(a) and body weights for the individual animals of group (b) are plotted in FIG. 4(b).

[5] = MCF-7 xenograft, IP every other day, Compound A 200 mg/kg, doxorubicin 2.5 mg/kg, alone or combined

| SMILES | effect on tumor growth (mean tumor volume) [1] | effect on tumor growth (mean tumor volume) [2] | time at which tumors were of comparable volume to control tumors after 28 days ([1]; single agents) [days] | survival of the animals [3, 5] [days] | effect on tumor growth (mean tumor volume) ([3]; MCF-7 xenograft, IP every other day, Compound A 200 mg/kg, doxorubicin 2.5 mg/kg, alone or combined, sodium salt) | effect on tumor growth (mean tumor volume) ([2]; sodium salt) | animals with major weight loss immediately preceding death ([4]; doxorubicin 1 mg/kg IP every other day alone) | body weight change ([4]; doxorubicin 1 mg/kg IP every other day, alone or with Compound A 200 mg/kg) | survival rate ([4]; doxorubicin 1 mg/kg IP every other day, alone or with Compound A 200 mg/kg, N=5) [%] | effect on tumor growth (mean tumor volume) [3, 5] | tumor size when the animals had died ([3]; doxorubicin 2.5 mg/kg alone, by the 35th day) [mm^3] |
| --- | --- | --- | --- | --- | --- | --- | --- | --- | --- | --- | --- |
| O=C1[O][Pt]2([NH][C@@H]3CCCC[C@H]3[NH]2)[O]C1=O [oxaliplatin] | significant therapeutic response | significant greater reduction in tumor growth; also recorded: slowed the growth of the tumor | – | – | – | – | – | – | – | – | – |
| COc1cc(OC)c(/C=C/S(=O)(=O)Cc2ccc(OC)c(NCC(=O)[O-])c2)c(OC)c1.[Na+] [(E)-2-(5-((2,4,6-trimethoxystyrylsulfonyl)methyl)-2-methoxyphenylamino)acetic acid sodium salt] | significant therapeutic response | – | 63 | 84 | significantly slowed the growth of the tumors; also recorded: comparable reduction in tumor growth | significant greater reduction in tumor growth; also recorded: slowed the growth of the tumor | – | – | – | – | – |
| COc1cccc2c1C(=O)c1c(O)c3c(c(O)c1C2=O)C[C@@](O)(C(=O)CO)C[C@@H]3O[C@H]1C[C@H](N)[C@H](O)[C@H](C)O1 [doxorubicin] | – | – | – | – | – | – | 4 of the 5 | initial suggestive weight gain | 20 | significantly slowed the growth of the tumors | 500 |

— patent US8106033B2, “Composition and methods for the treatment of proliferative diseases” (priority 2005, dated 2012)
